# Earlier results as cited in US20020040034A1, “Methods for treating allergic asthma using descarboethoxyloratadine” (priority 1997, published 2002).
# How the values were obtained:
# [1] = test system: melanoma and fibrosarcoma tumors
# [2] = test system: allergic bronchospasm; conditions: milligram by milligram basis
Compound,Association with tumor growth [1],"Inhibition of allergic bronchospasm, potency compared with terfenadine [2]"
CCOC(=O)N1CCC(=C2c3ccc(Cl)cc3CCc3cccnc32)CC1 [Loratadine],associated with growth of both melanoma and fibrosarcoma tumors,four times more potent than terfenadine
COc1ccc(CCN2CCC(Nc3nc4ccccc4n3Cc3ccc(F)cc3)CC2)cc1 [astemizole],associated with growth of both melanoma and fibrosarcoma tumors,
